The supplement of paper PMC11208160

Assay: recombinant UMI read abundance after kanamycin selection (control-corrected) (log10(CPM+1)); higher = more efficient recombination; extreme values may be limits of the assay; sequences stand for … in AGTGCAGAGAAAATCGGCCAGTTTTCTCTGCCTGCAGTCCGCATGCCGTGGGACCCCTTGGGTTCTAACCTGTTGCCTAGATTTATGCAGCGGACTGCCTTTCTCCCAAAGTGATAAACCGG…AGGTTGGTTTCACT; site = the 11-nt donor
Procedure, shortened: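 Reported values are log10(CPM+1) from a pooled Escherichia coli screen of donor and donor-binding-loop pairs for the IS621 bridge recombinase. Selection used IPTG (0.07 mM) plus kanamycin, against unselected plating, each in two replicates. Recombinant UMIs were amplified across the donor–target junction, sequenced, converted to CPM, averaged over replicates and scaled by control-derived factors.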
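Note: IS621 bridge recombinase in Escherichia coli cells against a fixed T5 target plasmid.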

| Sequence | recombinant UMI read abundance (log10) |
| --- | --- |
| ATTAAGACATGGACCGGTTTTCCCGGTAATCCGTATTTGGT (site ATTAAGACTAC) | 1.07 |
| GGGGGACCATGGACCGGTTTTCCCGGTAATCCGTATTTGCA (site GGGGCACCTTG) | 0 |
| GATAATCCATGGACCGGTTTTCCCGGTAATCCGTATTTGCT (site GATTATCCTAG) | 0 |
| ACGGTATCATGGACCGGTTTTCCCGGTAATCCGTATTTGCG (site ACAGTATCTTG) | 2.27 |
| GACTGGACATGGACCGGTTTTCCCGGTAATCCGTATTTGAC (site GATTGGACTGT) | 0 |
| TGCGTTACATGGACCGGTTTTCCCGGTAATCCGTATTTGTT (site TGCGTTACTAA) | 0.237 |
| CCGGTAGCATGGACCGGTTTTCCCGGTAATCCGTATTTGAC (site CCGGTAGCTGT) | 2.38 |
| CTCTACACATGGACCGGTTTTCCCGGTAATCCGTATTTGCT (site CTCTACACTAG) | 2.41 |
| TCCAATTCATGGACCGGTTTTCCCGGTAATCCGTATTTGGC (site TCCAATTCTGA) | 0 |
| GGCCACCCATGGACCGGTTTTCCCGGTAATCCGTATTTGTT (site GGCCACCCTTA) | 0.00548 |
| GGGCAGCCATGGACCGGTTTTCCCGGTAATCCGTATTTGGG (site GGGCAGCCTCC) | 0.0377 |
| GGGGTGGCATGGACCGGTTTTCCCGGTAATCCGTATTTGGT (site GGCGTGGCTAC) | 0.0131 |
| GATAATCCATGGACCGGTTTTCCCGGTAATCCGTATTTGCT (site GATGATCCTAG) | 0 |
| ATGTAGTCATGGACCGGTTTTCCCGGTAATCCGTATTTGGC (site ATGTAGTCTGC) | 3.26 |
| CCAGGTGCATGGACCGGTTTTCCCGGTAATCCGTATTTGAT (site CTAGGTGCTAT) | 0.629 |
| GGGGTGGCATGGACCGGTTTTCCCGGTAATCCGTATTTGGT (site GGAGTGGCTAC) | 0.553 |
| AACTATGCATGGACCGGTTTTCCCGGTAATCCGTATTTGGA (site AAGTATGCTTC) | 0.552 |
| TGGCCTTCATGGACCGGTTTTCCCGGTAATCCGTATTTGGT (site TAGCCTTCTAC) | 0 |
| AGGAAGACATGGACCGGTTTTCCCGGTAATCCGTATTTGCA (site TGAAAGACTTG) | 1.06 |
| GATTATGCATGGACCGGTTTTCCCGGTAATCCGTATTTGGA (site TATTATGCTTC) | 0.882 |
| TCAGCGACATGGACCGGTTTTCCCGGTAATCCGTATTTGCG (site TCAGAGACTCG) | 0.00361 |
| GGATGGACATGGACCGGTTTTCCCGGTAATCCGTATTTGCC (site GGATTGACTGG) | 0 |
| TAGAATACATGGACCGGTTTTCCCGGTAATCCGTATTTGCT (site TAGAATACTGG) | 0 |
| TAATGACCATGGACCGGTTTTCCCGGTAATCCGTATTTGGG (site TAATGAGCTCC) | 0.0136 |
| GGATAGTCATGGACCGGTTTTCCCGGTAATCCGTATTTGCC (site GGATAGCCTGG) | 0 |

| Sequence | recombinant UMI read abundance (log10) |
| --- | --- |
| CCATGCTCATGGACCGGTTTTCCCGGTAATCCGTATTTGAA (site CGATGCTCTTT) | 0.0134 |
| GCTTGCCCATGGACCGGTTTTCCCGGTAATCCGTATTTGAC (site GCTTGCCCTCT) | 0.0563 |
| AGGAAGACATGGACCGGTTTTCCCGGTAATCCGTATTTGCA (site AAGAAGACTGG) | 0 |
| GTAGGTACATGGACCGGTTTTCCCGGTAATCCGTATTTGAC (site GTAGATACTGT) | 1.54 |
| TAGCTAGCATGGACCGGTTTTCCCGGTAATCCGTATTTGAA (site TATCTAGCTTT) | 0.0236 |
| ACATTATCATGGACCGGTTTTCCCGGTAATCCGTATTTGAA (site ACAGTATCTTG) | 0 |
| AGGCCTACATGGACCGGTTTTCCCGGTAATCCGTATTTGAC (site AGGTCTACTGT) | 0 |
| CTCCCTACATGGACCGGTTTTCCCGGTAATCCGTATTTGAG (site CTCCCGACTCT) | 0.0234 |
| CGGCTTCCATGGACCGGTTTTCCCGGTAATCCGTATTTGGA (site CGGCTTCCTTC) | 0.00516 |
| AAGGTAACATGGACCGGTTTTCCCGGTAATCCGTATTTGCT (site AAGGTAACTAG) | 2.73 |
| GAAACCTCATGGACCGGTTTTCCCGGTAATCCGTATTTGTG (site GAAACCTCTCA) | 0.406 |
| GCCAAAACATGGACCGGTTTTCCCGGTAATCCGTATTTGCT (site GCGAAAACTAG) | 0 |
| GAAGACCCATGGACCGGTTTTCCCGGTAATCCGTATTTGCG (site GAAGACCCTCG) | 0.691 |
| GCTACTGCATGGACCGGTTTTCCCGGTAATCCGTATTTGGC (site GCTACTGCTGA) | 0.76 |
| CCACGTGCATGGACCGGTTTTCCCGGTAATCCGTATTTGAT (site CCAAGTGCTAT) | 0.0041 |
| CTTTTGGCATGGACCGGTTTTCCCGGTAATCCGTATTTGCT (site CTTTTGGCTAG) | 0 |
| CGGGAACCATGGACCGGTTTTCCCGGTAATCCGTATTTGCT (site CGGGAACCTAT) | 0 |
| GTTCCAGCATGGACCGGTTTTCCCGGTAATCCGTATTTGCA (site GTTCGAGCTTG) | 0 |
| CGAGGACCATGGACCGGTTTTCCCGGTAATCCGTATTTGGG (site CGTGGACCTCC) | 0.0136 |
| TCCACCGCATGGACCGGTTTTCCCGGTAATCCGTATTTGCT (site TCCACCGCTCG) | 0.0171 |
| GCTCGTCCATGGACCGGTTTTCCCGGTAATCCGTATTTGGG (site GCTCGTCCTCC) | 0.0164 |
| ACACATCCATGGACCGGTTTTCCCGGTAATCCGTATTTGAG (site ACACATCCTCT) | 0.668 |
| CCCGGTCCATGGACCGGTTTTCCCGGTAATCCGTATTTGCT (site CCCGGTCCTAG) | 0 |
| AAATGGGCATGGACCGGTTTTCCCGGTAATCCGTATTTGCT (site AAATGGGCTAG) | 2.28 |
| ACACTAGCATGGACCGGTTTTCCCGGTAATCCGTATTTGCA (site ACACTAGCTTG) | 1.05 |

| Sequence | recombinant UMI read abundance (log10) |
| --- | --- |
| CGATCCCCATGGACCGGTTTTCCCGGTAATCCGTATTTGAA (site CGATCCCCTTT) | 0.71 |
| CGATCGACATGGACCGGTTTTCCCGGTAATCCGTATTTGTT (site GGATCGACTAA) | 0.0103 |
| CTCTACACATGGACCGGTTTTCCCGGTAATCCGTATTTGCT (site CTCTACACTAA) | 0.362 |
| GTGGCTGCATGGACCGGTTTTCCCGGTAATCCGTATTTGCC (site GTGGCTGCTGG) | 2.44 |
| ACGTAGGCATGGACCGGTTTTCCCGGTAATCCGTATTTGGC (site ATGTAGGCTGC) | 1.21 |
| AAAGTACCATGGACCGGTTTTCCCGGTAATCCGTATTTGCG (site AAAGTACCTCG) | 0.0963 |
| AAATCCGCATGGACCGGTTTTCCCGGTAATCCGTATTTGTC (site AAATCCGCTGA) | 2.33 |
| CACGGGTCATGGACCGGTTTTCCCGGTAATCCGTATTTGCT (site CACGGGTCTAG) | 2.17 |
| ATCTAGACATGGACCGGTTTTCCCGGTAATCCGTATTTGAC (site ATCTATACTGT) | 0 |
| CGGCGTACATGGACCGGTTTTCCCGGTAATCCGTATTTGCT (site CGACGTACTAG) | 1.63 |
| TAGCCTACATGGACCGGTTTTCCCGGTAATCCGTATTTGGT (site TAGCCTGCTAC) | 0.0107 |
| CGTTCATCATGGACCGGTTTTCCCGGTAATCCGTATTTGCT (site CGGTCATCTAG) | 0 |
| ACAGGTCCATGGACCGGTTTTCCCGGTAATCCGTATTTGGC (site ACAGGTCCTGC) | 1.02 |
| TAGACGCCATGGACCGGTTTTCCCGGTAATCCGTATTTGTG (site TAGACGCCTCA) | 0.00987 |
| ACAATATCATGGACCGGTTTTCCCGGTAATCCGTATTTGCA (site ACATTATCTTG) | 1.81 |
| CGAGAACCATGGACCGGTTTTCCCGGTAATCCGTATTTGAT (site CGCGAACCTAT) | 0 |
| TGGTTTCCATGGACCGGTTTTCCCGGTAATCCGTATTTGCA (site TGGTTTCCTTG) | 0 |
| CTCTATACATGGACCGGTTTTCCCGGTAATCCGTATTTGAC (site TTCTATACTGT) | 0 |
| CATATCCCATGGACCGGTTTTCCCGGTAATCCGTATTTGCG (site CATATCCCTCG) | 0.847 |
| AGGACTACATGGACCGGTTTTCCCGGTAATCCGTATTTGAT (site AGGACTACTGT) | 0 |
| CTCCCTACATGGACCGGTTTTCCCGGTAATCCGTATTTGAG (site CTCCCTCCTCT) | 0.00493 |
| AGCGTTTCATGGACCGGTTTTCCCGGTAATCCGTATTTGAC (site AGCCTTTCTGT) | 0 |
| CGGACATCATGGACCGGTTTTCCCGGTAATCCGTATTTGCT (site CGGACATCTTG) | 0.756 |
| CCCTACACATGGACCGGTTTTCCCGGTAATCCGTATTTGTA (site CCCAACACTTA) | 0.0262 |
| TGCAATCCATGGACCGGTTTTCCCGGTAATCCGTATTTGAA (site CGCAATCCTTT) | 0.257 |
